This is an account of results in patent US20230295068A1, “NOVEL CYCLOALKENONE COMPOUND OR SALT THEREOF” (TAIHO PHARMACEUTICAL CO., LTD., priority 2020, published 2023).

For this data set, the system named is ND3 neuronal cell line. Kind of data set: Measurement of nerve growth stimulation effect (neurite bearing assay, neurite length assay, number of cells). The settings on record: relative cell number, DMSO well = 1; for Number of cells: ND3 cells, 6 h; for viability at 1 µM / viability at 3 µM / viability at 5 µM / viability at 10 µM / viability at 30 µM / viability at 100 µM: 6 hours. It is filed as cell-based. The procedure: To evaluate the nerve growth stimulation effect, neurite bearing assay (proportion of neurite-bearing cells) and neurite length assay (neurite length) were analyzed with reference to the method of Topalli et al. (Brain Research 1030 (2004), pp. 116-124).
An ND3 neuronal cell line (European Collection of Authenticated Cell Cultures) was seeded in a DMEM medium containing 10% fetal bovine serum (0.6×10^4 cells/1 mL) in a 24-well plate. 24 hours later, the medium of seeded cells was removed, and a solution in which the compound of the present disclosure that was sequentially diluted in dimethyl sulfoxide (DMSO) was adjusted in DIEM containing 0.1% bovine serum albumin so that the DMSO final concentration was 0.1%, was added to cells (evaluation performed in duplicate). After six hours from the addition, the proportion of neurite-bearing cells (the number of cells having a neurite longer than the diameter of the cell body/number of total cells), and the neurite length per cell were analyzed. The number of total cells, proportion of neurite-bearing cells, and neurite length per cell were analyzed using a MetaMorph Neurite Outgrowth Application Module (Molecular Devices Japan K.K.). The number of cells was defined as the relative cell number, taking the number of cells per well containing DMSO as 1. The relative activity of each compound when the maximum activity of 3-(15-methoxypentadecyl)-2,4,4-trimethylcyclohexa-2-en-1-one (compound 24) in each test was defined as 1 is shown (Table 9). For the compounds for which multiple tests were conducted, the average value was shown. Data with a number of cells of 0.5 or more was also used. Accordingly, if the number of cells was less than 0.5, the neurite length per cell and the proportion of neurite-bearing cells were defined as “-”.

The viability is a read-out of living cells in per cent, often relative to untreated cells.

Take `COCCCCCCCCCCCCC1=C(C)C(=O)CC1(C)C` [Compound 70, 3-(12-methoxydodecyl)-2,4,4-trimethylcyclopent-2-en-1-one]: the Number of cells reads like this: (1 μM compound) 0.84; (3 μM compound) 0.91; (5 μM compound) 0.91; (10 μM compound) 0.86; (30 μM compound) 0.79; (100 μM compound) 0.73.

As for `COCCCCCCCCCCCCCCCC1=C(C)C(=O)C(C)C1C` (centres unmarked) [Compound 46, 3-(15-methoxypentadecyl)-2,4,5-trimethylcyclopent-2-en-1-one], the viability at 1 µM is 94%, the viability at 3 µM came out at 99%, the viability at 5 µM turned out to be 83% and the viability at 10 µM was 78%. The viability at 30 µM was 102% and the viability at 100 µM was 98%.

Take `COCCCCCCCCCCCCCCCC1=C(I)C(=O)CCC1(C)C` [Compound 40, 2-iodo-3-(15-methoxypentadecyl)-4,4-dimethylcyclohex-2-en-1-one]: the viability at 1 µM was found to be 94%, the viability at 3 µM amounted to 104%, the viability at 5 µM came to 97% and the viability at 10 µM was 93%. In addition, the viability at 30 µM stood at 103% and the viability at 100 µM worked out at 98%.

`CC1=C(CCCCCCCCCCCCO)C(C)(C)CCC1=O` [Compound 1, 3-(12-hydroxydodecyl)-2,4,4-trimethylcyclohex-2-en-1-one, reference compound]: the viability at 1 µM stood at 103%, the viability at 3 µM was 105%, the viability at 5 µM is 99% and the viability at 10 µM came out at 103%. Further, the viability at 30 µM turned out to be 99% and the viability at 100 µM was 9%.

On to `COCCCCCCCCCCCCCCCC1=C(C)/C(=N/OC)CCC1(C)C` [Compound 68, 3-(15-methoxypentadecyl)-2,4,4-trimethylcyclohex-2-en-1-one O-methyloxime], for which the Number of cells reads like this: (1 μM compound) 0.85; (3 μM compound) 0.92; (5 μM compound) 0.73; (10 μM compound) 0.71; (30 μM compound) 0.95; (100 μM compound) 0.89.

`CC1=C(CCCCCCCCCCCCCCC#N)C(C)(C)CC1=O` [Compound 75, 15-(2,5,5-trimethyl-3-oxocyclopent-1-en-1-yl)pentadecanitrile] displayed a Number of cells (1 μM compound) of 0.89; a Number of cells (3 μM compound) of 0.93; a Number of cells (5 μM compound) of 0.94; a Number of cells (10 μM compound) of 0.80; a Number of cells (30 μM compound) of 0.75; a Number of cells (100 μM compound) of 0.80.

Consider `COC(C)(C)CCCCCCCCCCCCCCC1=C(C)C(=O)CCC1(C)C` [Compound 48, 3-(15-methoxy-15-methylhexadecyl)-2,4,4-trimethylcyclohex-2-en-1-one], for which the viability at 1 µM amounted to 85%, the viability at 3 µM turned out to be 93%, the viability at 5 µM came to 91% and the viability at 10 µM turned out to be 90%. The viability at 30 µM worked out at 93% and the viability at 100 µM stood at 87%.

On to `CCOCCCCCCCCCCCCCCC1=C(C)C(=O)CC1(C)C` [Compound 73, 2,4,4-trimethyl-3-(14-ethoxytetradecyl)cyclopent-2-en-1-one], for which the Number of cells is, setting by setting: (1 μM compound) 0.91; (3 μM compound) 0.86; (5 μM compound) 0.84; (10 μM compound) 0.82; (30 μM compound) 0.61; (100 μM compound) 0.09.

For the compound `CC1=C(CCCCCCCCCCCCCCCOC2CCCCO2)C(C)(C)CCC1=O` (centres unmarked) [Compound 6, 2,4,4-trimethyl-3-(15-((tetrahydro-2H-pyran-2-yl)oxy)pentadecyl)cyclohex-2-en-1-one, reference compound], the viability at 1 µM came to 97%, the viability at 3 µM was found to be 85%, the viability at 5 µM is 67% and the viability at 10 µM stood at 64%. Also, the viability at 30 µM was found to be 72% and the viability at 100 µM amounted to 92%.

On to `CC1=C(CCCCCCCCCCCCCCCCO)C(C)(C)CCC1=O` [Compound 5, 3-(16-hydroxyhexadecyl)-2,4,4-trimethylcyclohex-2-en-1-one, reference compound], for which the viability at 1 µM amounted to 111%, the viability at 3 µM came out at 109%, the viability at 5 µM was 105% and the viability at 10 µM was 83%. The viability at 30 µM came to 49% and the viability at 100 µM turned out to be 40%.

For `COCCCCCCCCCCCCCCCC1=C(C)C(=O)CC1` [Compound 45, 3-(15-methoxypentadecyl)-2-methylcyclopent-2-en-1-one], the viability at 1 µM turned out to be 94%, the viability at 3 µM stood at 90%, the viability at 5 µM stood at 74% and the viability at 10 µM worked out at 83%. The viability at 30 µM amounted to 71% and the viability at 100 µM worked out at 75%.

`COCCCCCCCCCCCCCCCC1=CC(=O)CCC1(C)C` [Compound 39, 3-(15-methoxypentadecyl)-4,4-dimethylcyclohex-2-en-1-one]: the viability at 1 µM came out at 83%, the viability at 3 µM was 100%, the viability at 10 µM came out at 97% and the viability at 30 µM turned out to be 97%. The viability at 100 µM was 49%.

For `CCCCOCCCCCCCCCCCCCC1=C(C)C(=O)CCC1(C)C` [Compound 20, 3-(13-butoxytridecyl)-2,4,4-trimethylcyclohex-2-en-1-one], the viability at 1 µM was found to be 110%, the viability at 3 µM worked out at 110%, the viability at 5 µM was determined as 96% and the viability at 10 µM was found to be 90%. The viability at 30 µM worked out at 113% and the viability at 100 µM came out at 117%.

For `COCCCCCCCCCCCCCCCC1C(C)C(=O)CCC1(C)C` (centres unmarked) [Compound 63, 3-(15-methoxypentadecyl)-2,4,4-trimethylcyclohexan-1-one], the Number of cells reads like this: (1 μM compound) 1.13; (3 μM compound) 1.05; (5 μM compound) 0.84; (10 μM compound) 0.91; (30 μM compound) 1.11; (100 μM compound) 1.16.

For the compound `CC1=C(CCCCCCCCCCCCCCC(N)=O)C(C)(C)CC1=O` [Compound 74, 15-(2,5,5-trimethyl-3-oxocyclopent-1-en-1-yl)pentadecanamide], the Number of cells is, setting by setting: (1 μM compound) 0.74; (3 μM compound) 0.75; (5 μM compound) 0.71; (10 μM compound) 0.73; (30 μM compound) 0.60; (100 μM compound) 0.26.

With `CC1=C(CCCCCCCCCCCCCCO)C(C)(C)CCC1=O` [Compound 3, 3-(14-hydroxytetradecyl)-2,4,4-trimethylcyclohex-2-en-1-one, reference compound], the viability at 1 µM was 98%, the viability at 3 µM was found to be 105%, the viability at 5 µM was 110% and the viability at 10 µM is 108%. In addition, the viability at 30 µM was found to be 11% and the viability at 100 µM worked out at 13%.

`CC1=C(CCCCCCCCCCCCCCCOC(C)C)C(C)(C)CCC1=O` [Compound 26, 3-(15-isopropoxypentadecyl)-2,4,4-trimethylcyclohex-2-en-1-one]: the viability at 1 µM came to 102%, the viability at 3 µM worked out at 100%, the viability at 5 µM amounted to 93% and the viability at 10 µM amounted to 90%. Besides, the viability at 30 µM came out at 98% and the viability at 100 µM turned out to be 101%.

With `CC1=C(CCCCCCCCCCCCCCCOC(=O)c2ccccc2)C(C)(C)CCC1=O` [Compound 53, 15-(2,6,6-trimethyl-3-oxocyclohex-1-en-1-yl)pentadecyl benzoate], the viability at 1 µM is 91%, the viability at 3 µM turned out to be 95%, the viability at 5 µM amounted to 94% and the viability at 10 µM was found to be 96%. Moreover, the viability at 30 µM stood at 105% and the viability at 100 µM was 115%.

For the compound `CC1(C)CCC(=O)C=C1CCCCCCCCCCCCCCCO` [Compound 8, 3-(15-hydroxypentadecyl)-4,4-dimethylcyclohex-2-en-1-one, reference compound], the viability at 1 µM was 101%, the viability at 3 µM was found to be 102%, the viability at 5 µM turned out to be 98% and the viability at 10 µM came to 93%. In addition, the viability at 30 µM was 6% and the viability at 100 µM worked out at 9%.
